Measurements published in patent US9522125B1, “Method of treating cancer” (Macau University of Science and Technology, priority 2015, dated 2016).

How the values were obtained:
ROS1 kinase = ROS1 kinase (Homo sapiens, UniProt P08922); assay: In vitro ROS1 enzymatic assay (LanthaScreen Eu kinase binding assay); details: room temperature, 1 hour
Description: 1.2 In Vitro ROS1 Enzymatic Assay
LanthaScreen® Eu kinase binding assay was used to determine the changes in kinase activity, which is an assay based on the binding and displacement property of the kinase with substrate. Briefly, the assay was performed at room temperature for 1 hour in a total volume of 15 μL, including 5 μL of test compound, 5 μL of kinase/antibody mixture and 5 μL of tracer. The signal of the 384-well plate was then measured at the end of the reactions.

HCC78 cells [1] = assay: Apoptosis analysis (morphology; Annexin-V FITC/PI flow cytometry) in HCC78 cells; format: cell-based
Description: HCC78 cells were seeded on a 6-well plate, and were allowed to attach overnight. The cells were treated with a dilution series of mitoxantrone for 48 h, collected by trypsin and washed twice with ice-cold PBS, and then resuspended in 100 μl 1× binding buffer. 2 μL Annexin-V FITC and 4 μL PI (100 μg/ml) were added to the solution and mixed well. After incubation for 15 min in the dark at room temperature, 400 μL of 1× binding buffer was added to each tube, where apoptosis level was then quantitatively analyzed using a FACSAria III Flow Cytometer (BD Biosciences, San Jose, Calif., USA).

ROS1 phosphorylation = assay: Western blot analysis of ROS1 phosphorylation and downstream signaling in HCC78 cells; format: cell-based; details: 48 h, 5 nM, 10 nM and 20 nM
Description: 1.5 Western Blot Analysis
After cells were plated on 6-well plates overnight, a wide concentrations of mitoxantrone were administered for 48 h. Cells were washed twice with cold PBS and then lysed in RIPA lysis buffer containing protease and phosphatase inhibitors, and protein concentration of the cell lysates were measured using the Bio-Rad protein Assay kit (Bio-Rad, Philadelphia, Pa., USA). After equalizing the protein concentrations of the samples, 5× laemmli buffer was added and boiled at 100° C. for 5 min. Equal amounts of protein samples (30 μg) were subjected to SDS-PAGE and separated with a 10% gel; then the separated proteins were transferred to a Nitrocellulose (NC) membrane, which was then exposed to 5% non-fat dried milk in TBS containing 0.1% Tween 20 (0.1% TBST) for 1 h at room temperature, followed by overnight incubation at 4° C. with primary anti-bodies (1:1000 dilutions). After being washed 3 times by TBST, the membranes were incubated with secondary fluorescent antibodies (1:10000 dilutions) to rabbit or mouse, the signal intensity of the membranes was detected by an LI-COR Odessy scanner (Belfast, Me., USA). Antibodies against GAPDH, p-AKT, p-ROS1, ROS1, p-ERK, ERK, p-STAT3, STAT3 were purchased from Cell signaling Technology. Anti-AKT antibody was acquired from Santa Cruz Biotechnology.

HCC78 cells [2] = assay: MTT cytotoxicity assay on HCC78 cells; format: cell-based; details: Homo sapiens, 72 h treatment
Description: HCC78 cell line was purchased from the American Type Culture Collection (ATCC) (Manassas, Va., USA). Cells were cultured in RPMI-1640 medium containing 10% fetal bovine serum (FBS), 100 units/mL penicillin, and 100 μg/mL streptomycin under a humidified atmosphere of 5% CO2 at 37° C. Mitoxantrone was dissolved in DMSO.
(§1) 1.3 MTT Cytotoxicity Assay
(§2) 3000 cells were seeded on 96-well plates, then the plates were cultured overnight for cell adhesion, and treated with DMSO or various concentrations of mitoxantrone for 72 h. 10 μL of MTT (5 mg/mL; Sigma) was added in each well, and incubation was continued for another 4 hours, then the dark blue crystals were dissolved in 100 μL resolved solution (10% SDS and 0.1 mM HCL). Finally, the absorbance was measured at 570 nm by a microplate reader (Tecan, Morrisville, N.C., USA). The cell viability was calculated relative to untreated controls, and results were presented based on at least 3 independent experiments.

CCD19-Lu cells = assay: MTT cytotoxicity assay on normal lung cells CCD19-Lu; format: cell-based; details: 72 h treatment
Description: as §1, §2

Chain of ROS1 kinase (P08922 28-2347): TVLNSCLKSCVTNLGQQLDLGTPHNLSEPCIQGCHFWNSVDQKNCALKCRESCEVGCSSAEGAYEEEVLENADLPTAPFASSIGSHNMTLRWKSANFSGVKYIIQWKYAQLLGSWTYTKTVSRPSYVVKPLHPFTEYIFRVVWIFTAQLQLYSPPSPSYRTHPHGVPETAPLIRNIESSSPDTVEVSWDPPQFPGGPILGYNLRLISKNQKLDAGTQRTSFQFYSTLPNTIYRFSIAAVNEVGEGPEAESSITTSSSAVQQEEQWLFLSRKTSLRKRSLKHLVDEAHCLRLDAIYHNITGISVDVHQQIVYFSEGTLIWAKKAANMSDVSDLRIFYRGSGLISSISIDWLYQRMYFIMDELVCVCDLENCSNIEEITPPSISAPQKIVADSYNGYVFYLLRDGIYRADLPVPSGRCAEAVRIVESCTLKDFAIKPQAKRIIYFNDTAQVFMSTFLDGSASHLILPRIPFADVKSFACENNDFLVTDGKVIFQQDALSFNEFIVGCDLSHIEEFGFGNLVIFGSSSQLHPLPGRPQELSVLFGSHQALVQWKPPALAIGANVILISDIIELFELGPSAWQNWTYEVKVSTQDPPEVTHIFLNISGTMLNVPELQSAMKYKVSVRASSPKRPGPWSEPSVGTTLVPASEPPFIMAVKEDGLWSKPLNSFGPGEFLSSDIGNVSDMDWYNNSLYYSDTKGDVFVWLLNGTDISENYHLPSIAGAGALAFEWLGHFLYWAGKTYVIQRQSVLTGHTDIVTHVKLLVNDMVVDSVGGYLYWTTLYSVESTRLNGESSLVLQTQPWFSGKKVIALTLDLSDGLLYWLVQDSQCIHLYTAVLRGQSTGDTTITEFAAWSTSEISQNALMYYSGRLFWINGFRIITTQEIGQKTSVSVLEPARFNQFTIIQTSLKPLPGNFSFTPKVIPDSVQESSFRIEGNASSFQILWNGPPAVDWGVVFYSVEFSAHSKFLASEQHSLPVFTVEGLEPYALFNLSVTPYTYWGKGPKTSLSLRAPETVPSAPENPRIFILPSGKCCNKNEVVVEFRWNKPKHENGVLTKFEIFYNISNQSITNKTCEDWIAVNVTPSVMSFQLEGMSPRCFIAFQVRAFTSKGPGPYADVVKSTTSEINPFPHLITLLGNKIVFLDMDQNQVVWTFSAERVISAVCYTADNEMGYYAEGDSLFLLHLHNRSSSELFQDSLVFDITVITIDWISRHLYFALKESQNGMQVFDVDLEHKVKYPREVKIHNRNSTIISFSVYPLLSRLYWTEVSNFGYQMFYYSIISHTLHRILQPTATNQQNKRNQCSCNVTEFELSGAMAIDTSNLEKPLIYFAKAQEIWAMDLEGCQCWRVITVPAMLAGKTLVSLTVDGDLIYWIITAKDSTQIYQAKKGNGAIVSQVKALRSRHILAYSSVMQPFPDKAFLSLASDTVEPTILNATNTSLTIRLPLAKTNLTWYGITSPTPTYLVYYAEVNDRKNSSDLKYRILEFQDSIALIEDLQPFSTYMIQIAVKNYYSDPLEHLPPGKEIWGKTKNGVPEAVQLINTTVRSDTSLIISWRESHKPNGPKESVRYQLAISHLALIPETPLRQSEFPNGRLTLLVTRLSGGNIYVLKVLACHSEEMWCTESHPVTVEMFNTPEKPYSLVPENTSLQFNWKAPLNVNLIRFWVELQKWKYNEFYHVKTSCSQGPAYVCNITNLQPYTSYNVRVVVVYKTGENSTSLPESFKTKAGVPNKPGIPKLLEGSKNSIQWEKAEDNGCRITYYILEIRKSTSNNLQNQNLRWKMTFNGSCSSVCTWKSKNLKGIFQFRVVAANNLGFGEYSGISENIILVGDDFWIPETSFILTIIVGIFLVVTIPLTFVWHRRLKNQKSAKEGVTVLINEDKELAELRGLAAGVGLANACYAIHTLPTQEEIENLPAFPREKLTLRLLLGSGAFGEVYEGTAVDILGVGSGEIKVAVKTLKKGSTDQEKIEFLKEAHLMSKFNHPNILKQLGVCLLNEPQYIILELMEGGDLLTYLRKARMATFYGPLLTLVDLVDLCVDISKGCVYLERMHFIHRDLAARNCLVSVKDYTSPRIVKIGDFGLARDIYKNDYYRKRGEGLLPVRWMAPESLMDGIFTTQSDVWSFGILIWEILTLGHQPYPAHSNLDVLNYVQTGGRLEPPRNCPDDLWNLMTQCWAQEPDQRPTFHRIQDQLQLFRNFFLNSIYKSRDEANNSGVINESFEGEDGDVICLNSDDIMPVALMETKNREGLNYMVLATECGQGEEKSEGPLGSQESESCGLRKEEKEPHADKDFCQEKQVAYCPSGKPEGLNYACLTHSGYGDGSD

SMILES: O=C1c2c(O)ccc(O)c2C(=O)c2c(NCCNCCO)ccc(NCCNCCO)c21 [Mitoxantrone, mitoxantrone]
- IC50 (ROS1 kinase): 36 nM
- induction of apoptosis (flow cytometry) (HCC78 cells [1]; 48 h, 5 nM, 10 nM and 20 nM, compared with the control group): induced significant apoptosis levels
- concentration from which cells detached and became smaller (morphological indication of apoptosis) (HCC78 cells [1]; FIG. 4): ≥ 10 nM
- ROS1 phosphorylation and downstream signaling molecules Erk1/2, STAT3 and AKT (western blot) (ROS1 phosphorylation): dose-dependent decrease
- IC50 (HCC78 cells [2]): 13.8 ± 2.49 nM
- fold of IC50 in CCD19-Lu over IC50 on HCC78 (CCD19-Lu cells): at least 11.6 fold
- IC50 (CCD19-Lu cells; Homo sapiens, CCD 19Lu, CCD19-Lu normal lung cells): > 160 nM
